Measurements taken from ChEMBL document CHEMBL5223145, “A small molecule binding to TGGAA pentanucleotide repeats that cause spinocerebellar ataxia type 31” (Bioorg Med Chem Lett, 2023).
Calls of active or inactive are those of the source. No cut-off for these calls is given here.

Assays:
[1] = Stabilization of GGC/GGC -motif DNA (unknown origin) assessed as increase in melting temperature
[2] = Stabilization of GGA/GGA-motif DNA (unknown origin) assessed as increase in melting temperature
[3] = Stabilization of AGG/AGG-motif DNA (unknown origin) assessed as increase in melting temperature
[4] = Stabilization of AAA/AAA-motif DNA (unknown origin) assessed as increase in melting temperature at 5 to 10 uM; details: dose 5-10 µM
[5] = Stabilization of GGA/AGG-motif DNA (unknown origin) assessed as increase in melting temperature at 5 to 10 uM; details: dose 5-10 µM
[6] = Stabilization of GGA/AAA-motif DNA (unknown origin) assessed as increase in melting temperature at 5 to 10 uM; details: dose 5-10 µM
[7] = Stabilization of GGA/AGA-motif DNA (unknown origin) assessed as increase in melting temperature at 5 to 10 uM; details: dose 5-10 µM
[8] = Stabilization of AGA/AAA-motif DNA (unknown origin) assessed as increase in melting temperature at 5 to 10 uM; details: dose 5-10 µM
[9] = Stabilization of AGA/AGA-motif DNA (unknown origin) assessed as increase in melting temperature at 5 to 10 uM; details: dose 5-10 µM
[10] = Stabilization of TGGAA DNA (unknown origin) assessed as increase in melting temperature at 2 to 20 uM; details: dose 2-20 µM
[11] = Binding affinity to GGA/GGA-motif hairpin DNA (unknown origin) assessed as association constant by isothermal titration calorimetry

| Structure (SMILES) | Tm [1] [°C] | Tm [2] [°C] | Activity [3] | Tm [4] [°C] | Tm [5] [°C] | Tm [6] [°C] | Tm [7] [°C] | Tm [8] [°C] | Tm [9] [°C] | Tm [10] [°C] | Ka [11] | Activity [1] |
| --- | --- | --- | --- | --- | --- | --- | --- | --- | --- | --- | --- | --- |
| Cc1ccc2ccc(NC(=O)CCNCCC(=O)Nc3ccc4ccc(C)nc4n3)nc2n1 | 1.8 | 7.5 | Active | – | – | – | – | – | – | – | – | – |
| Cc1ccc2ccc(NC(=O)CCN(CCC(=O)Nc3ccc4ccc(C)nc4n3)C(=O)CCCN)nc2n1 | 4.6 | 13.8 | inactive | -1.2 | 13.8 | -1.2 | 9.8 | 0.3 | 11.6 | 68.5 | 2.5 10^7/M | – |
| Cc1ccc2ccc(NC(=O)CCN(CCCCN)CCC(=O)Nc3ccc4ccc(C)nc4n3)nc2n1 | – | 6 | Active | – | – | – | – | – | – | – | – | inactive |
| Cc1ccc2ccc(NC(=O)OCCCNCCCOC(=O)Nc3ccc4ccc(C)nc4n3)nc2n1 | – | 6 | Active | – | – | – | – | – | – | – | – | inactive |
